Laboratory results published in patent publication US12599548B2, “Method of treating oxidative stress in skin and compositions therefor” (The Procter & Gamble Company, priority 2020, dated 2026).

Test system: Keratinocytes (H-tert-keratinocytes) subjected to oxidative stress
Assay: Oxidative Stress Test (cellular ATP level, ATP Glo luminescence)
Format: cell-based, human
Details: 90 minutes
Description: This test method provides a suitable way to determine the ability of a test agent to improve cellular ATP production in cells subjected to oxidative stress.
Keratinocytes (e.g., H-tert-keratinocytes from University of Texas Southwestern) are cultured in T150 flasks in EpiLife Medium (e.g., catalogue #MEPICFPRF500 from Thermo Fisher Scientific) supplemented with human keratinocyte growth supplement (e.g., catalogue #S-001-5 from Thermo Fisher Scientific) and 1% penicillin/streptomycin (e.g., catalogue #15140-122 from Thermo Fisher Scientific). When the keratinocytes reach ˜70% confluency, they are plated out into 96 well plates (white, clear bottom with 20,000 cells/well). Incubate the plates for 24 hours before the experimental stress and treatment are applied.
The 96 well plate is divided into three groups of samples (wells) as follows: (i) no stress and no treatment is applied, (ii) stress is applied but no treatment and (iii) stress and treatment are both applied. In combination experiments, stress plus 2 treatments may be applied. For the no stress/no treatment samples (i.e., group (i) above), the culture medium is simply refreshed. For the stressed samples (i.e., group (ii) and (iii) above), culture medium containing 400 μM hydrogen peroxide (HOOH) is used to replace the medium. For the treatment samples (i.e., group (iii) above), immediately after adding the HOOH, pipette the treatment(s) into the wells from a 100× master stock. Return the plates to the CO2 incubator for 90 minutes before measuring ATP.
ATP is measured by removing the media from the samples and replacing it with ATP Glo® reagent (available from Promega, Madison, WI), or equivalent, per manufacturer's instructions. After 10 minutes of exposure at room temperature, the luminescence of each sample can be measured using a Perkin Elmer ENVISION brand plate reader or equivalent. Luminescent counts are directly proportional to ATP level in the cells. Record the luminescent counts for each sample.
Replicates of each treatment group are averaged together, and standard p-value calculations are used (2-sided, equal variance) to calculate significance. In cases where 2 treatments appear to synergistically enhance ATP levels, the results of the combined treatments can be compared to the sum of the individual treatments to determine a synergy factor. The synergy factor is calculated as the ratio of the observed effect from the combined treatments divided by the sum of the results from each individual treatment.
The test agents used in the Oxidative Stress Test are limited to relatively low concentrations due to cell toxicity. That is, applying high concentrations of the test agent directly to “unprotected” keratinocytes may kill some of all of the cells, which would obviously skew the test results. […]

In the case of `CCCCCCCCC(CO)CCCCCC` (stereo not shown) [Fatty Alcohol, hexyldecanol], the “Measured ATP level” value (Fatty Alcohol 0.2 ppm, 400 μM hydrogen peroxide) is reported as 368.3, the “Measured ATP level” value (Fatty Alcohol 1 ppm, keratinocytes stressed with 400 μM hydrogen peroxide, luminescent counts) is reported as 534.3 and the “Measured ATP level” value (Fatty Alcohol 5 ppm, 400 μM hydrogen peroxide) is reported as 708.0. For the same compound, the “Measured ATP level” value (Fatty Alcohol 50 ppm, 400 μM hydrogen peroxide) was 962.3.
